Test results: ChEMBL document CHEMBL1152554, “Synthesis and pharmacological evaluation of 6-naltrexamine analogs for alcohol cessation” (Bioorg Med Chem, 2009)
The source made the active and inactive calls. No cut-off for these calls is given here.

What was measured:
in vitro = conditions: mouse, liver microsomes
[1] = mouse, microsomes
Liver microsomes = conditions: human
Nociceptin receptor [2] = molecular target: T1, Nociceptin receptor (Homo sapiens, UniProt P41146); experiment: Activity at NOP expressed in HEK293 cells assessed as stimulation of [35S]GTPgammaS binding relative to basal level; type: functional, cell-based
Rattus norvegicus = experiment: Inhibition of saccharin intake in sc dosed Wistar rat by saccharin-self administration test; type: functional, organism-based
Nociceptin receptor [3] = molecular target: T1, Nociceptin receptor; experiment: biochemical
Nociceptin receptor [4] = molecular target: T1, Nociceptin receptor; experiment: biochemical; remark: listed apart in the source
Nociceptin receptor [5] = molecular target: T1, Nociceptin receptor; experiment: biochemical; remark: listed apart in the source
[6] = Ratio of drug level in brain to plasma in Wistar rat at 400 ug/kg, po after […]; type: ADME, organism-based; conditions: 0.4 mg/kg, read-out: BPR

T1 sequence (P41146 whole entry): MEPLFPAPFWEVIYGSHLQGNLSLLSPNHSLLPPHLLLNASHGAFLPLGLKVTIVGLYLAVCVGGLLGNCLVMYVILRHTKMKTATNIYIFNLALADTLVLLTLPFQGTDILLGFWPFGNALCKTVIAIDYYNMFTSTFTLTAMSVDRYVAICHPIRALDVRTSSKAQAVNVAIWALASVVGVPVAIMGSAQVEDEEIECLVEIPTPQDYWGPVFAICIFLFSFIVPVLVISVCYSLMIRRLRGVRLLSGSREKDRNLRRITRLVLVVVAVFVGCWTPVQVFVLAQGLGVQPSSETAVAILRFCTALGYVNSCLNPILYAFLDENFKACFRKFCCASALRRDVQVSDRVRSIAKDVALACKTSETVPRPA

| Compound | Stability [1] | Stability (Liver microsomes) | EC50 (Nociceptin receptor [4]) [µM] | also measured |
| --- | --- | --- | --- | --- |
| C=C1CC[C@@]2(O)[C@H]3Cc4ccc(O)c5c4[C@@]2(CCN3CC2CC2)[C@H]1O5 |  |  |  | half-life (in vitro): 20 min |
| CC(C)(C)c1ccc(C(=O)N[C@@H]2CC[C@@]3(O)[C@H]4Cc5ccc(O)c6c5[C@@]3(CCN4CC3CC3)[C@H]2O6)cc1.O=C(O)C(=O)O | Stable |  |  |  |
| O=C(N[C@@H]1CC[C@@]2(O)[C@H]3Cc4ccc(O)c5c4[C@@]2(CCN3CC2CC2)[C@H]1O5)c1ccc(C(F)(F)F)cc1.O=C(O)C(=O)O | Stable | Stable |  |  |
| Oc1ccc2c3c1O[C@H]1c4[nH]c5ccccc5c4C[C@@]4(O)[C@@H](C2)N(CC2CC2)CC[C@]314 |  |  |  | Emax (Nociceptin receptor [2]): 109% |
| O=C(N[C@@H]1CC[C@@]2(O)[C@H]3Cc4ccc(O)c5c4[C@@]2(CCN3CC2CC2)[C@H]1O5)c1ccc(Br)cc1.O=C(O)C(=O)O |  | Stable | > 10 | inhibition (Rattus norvegicus): Active; Ki (Nociceptin receptor [3]): > 10 µM |
| O=C(N[C@@H]1CC[C@@]2(O)[C@H]3Cc4ccc(O)c5c4[C@@]2(CCN3CC2CC2)[C@H]1O5)c1ccc(Cl)c(Cl)c1.O=C(O)C(=O)O | Stable |  | > 10 | EC50 (Nociceptin receptor [5]): 0.0001 µM |
| O=C(N[C@@H]1CC[C@@]2(O)[C@H]3Cc4ccc(O)c5c4[C@@]2(CCN3CC2CC2)[C@H]1O5)c1ccc(Cl)cc1 |  |  | > 10 |  |
| Cc1ccc(C(=O)N[C@@H]2CC[C@@]3(O)[C@H]4Cc5ccc(O)c6c5[C@@]3(CCN4CC3CC3)[C@H]2O6)cc1.O=C(O)C(=O)O | Stable | Stable |  |  |
| O=C(O)C(=O)O.O=[14C](N[C@@H]1CC[C@@]2(O)[C@H]3Cc4ccc(O)c5c4[C@@]2(CCN3CC2CC2)[C@H]1O5)c1ccc(Br)cc1 |  |  |  | Kp at […] [6]: 2.3 |
